This experiment concerns the target T1, NFU1 (Homo sapiens, UniProt Q9UMS0).
T1 sequence (Q9UMS0 10-254): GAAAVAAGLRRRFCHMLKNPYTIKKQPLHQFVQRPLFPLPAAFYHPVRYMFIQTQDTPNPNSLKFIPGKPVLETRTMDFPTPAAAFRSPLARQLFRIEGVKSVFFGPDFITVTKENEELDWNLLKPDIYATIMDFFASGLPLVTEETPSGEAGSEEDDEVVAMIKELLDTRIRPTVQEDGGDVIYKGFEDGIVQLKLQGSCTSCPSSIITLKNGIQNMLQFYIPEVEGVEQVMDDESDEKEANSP
Nature of the experiment: 1H-15N HSQC NMR of cluster assembly on 15N-labelled apo NFU1. In kind it is binding. The conditions noted are these: cluster donor [2Fe-2S] C59Y BOLA3-GLRX5 at 1:1; 5 mM DTT; 5 mM GSH; anaerobic.

Take `[S]12[Fe]3[S]4[Fe]1[S]1[Fe]2[S]3[Fe]41` [[4Fe–4S]2+ cluster]: the “amount of [4Fe-4S] NFU1 formed in the final mixture” value is listed as 25%.
